Results reported in PubChem BioAssay AID1963441 (Molecular Pharmacology Branch, DTP, NCI, 2024).
Values joined by “and” are separate entries in the source; they are usually repeats but may differ in a detail not shown here. Identical values can stand only once.

Tested on: NCI-H1876 complex spheroid growth, % test/control
Experiment: Anticancer human tumor NCI-H1876 cell line growth inhibition [Asc];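 also: compound exposure lasted 7 days starting three days after seeding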;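 as to viability, T/C: 100% = DMSO vehicle control wells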
Settings: for viability, T/C: stronger effect = lower value; active = viability on the fitted dose curve at most 10% of control; inactive = the rest
Procedure, shortened: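 Tumor cells were grown as multicellular spheroids with stromal HUVEC and mesenchymal stem cells and treated singly or in combination. Concentrations fell in half-log steps from the clinical Cmax, or from 10 microM where none was known.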

[1] = curve of first compound, second compound 0.00949 µM
[2] = curve of first compound, second compound 0.03 µM
[3] = curve of first compound, second compound 0.0949 µM
[4] = curve of first compound, second compound 0.3 µM
[5] = curve of first compound, second compound 0.949 µM
[6] = curve of first compound, second compound 3 µM
[7] = second compound 0.00949 µM, first compound 0.0316 µM
[8] = second compound 0.00949 µM, first compound 0.1 µM
[9] = second compound 0.00949 µM, first compound 0.316 µM
[10] = second compound 0.00949 µM, first compound 1 µM
[11] = second compound 0.03 µM, first compound 0.0316 µM
[12] = second compound 0.03 µM, first compound 0.1 µM
[13] = second compound 0.03 µM, first compound 0.316 µM
[14] = second compound 0.03 µM, first compound 1 µM
[15] = second compound 0.0949 µM, first compound 0.0316 µM
[16] = second compound 0.0949 µM, first compound 0.1 µM
[17] = second compound 0.0949 µM, first compound 0.316 µM
[18] = second compound 0.0949 µM, first compound 1 µM
[19] = second compound 0.3 µM, first compound 0.0316 µM
[20] = second compound 0.3 µM, first compound 0.1 µM
[21] = second compound 0.3 µM, first compound 0.316 µM
[22] = second compound 0.3 µM, first compound 1 µM
[23] = second compound 0.949 µM, first compound 0.0316 µM
[24] = second compound 0.949 µM, first compound 0.1 µM
[25] = second compound 0.949 µM, first compound 0.316 µM
[26] = second compound 0.949 µM, first compound 1 µM
[27] = second compound 3 µM, first compound 0.0316 µM
[28] = second compound 3 µM, first compound 0.1 µM
[29] = second compound 3 µM, first compound 0.316 µM
[30] = second compound 3 µM, first compound 1 µM

CNC(C)C(=O)NC1CN(S(=O)(=O)c2cccc(S(=O)(=O)N3CCC4CCC(C(=O)NC(c5ccccc5)c5ccccc5)N4C(=O)C(NC(=O)C(C)NC)C3)c2)CCC2CCC(C(=O)NC(c3ccccc3)c3ccccc3)N2C1=O (configuration not stated) + CCN1C(C(=O)NC23CCC(C(=O)O)(CC2)CC3)C(c2cccc(Cl)c2F)C2(C(=O)Nc3cc(Cl)ccc32)C12CCCCC2
inactive: viability, T/C (second compound 0.00949 µM, first compound 0.00316 µM) 101% | viability, T/C (second compound 0.00949 µM, first compound 0.01 µM) 99.6% | viability, T/C [7] 101% | viability, T/C [8] 100% | viability, T/C [9] 116% | viability, T/C [10] 102% | viability, T/C (second compound 0.03 µM, first compound 0.00316 µM) 103% | viability, T/C (second compound 0.03 µM, first compound 0.01 µM) 96.7% | viability, T/C [11] 98.8% | viability, T/C [12] 98.4% | viability, T/C [13] 115% | viability, T/C [14] 97% | viability, T/C (second compound 0.0949 µM, first compound 0.00316 µM) 111% | viability, T/C (second compound 0.0949 µM, first compound 0.01 µM) 104% | viability, T/C [15] 106% | viability, T/C [16] 106% | viability, T/C [17] 98.5% | viability, T/C [18] 110% | viability, T/C (second compound 0.3 µM, first compound 0.00316 µM) 103% | viability, T/C (second compound 0.3 µM, first compound 0.01 µM) 108% | viability, T/C [19] 108% | viability, T/C [20] 108% | viability, T/C [21] 118% | viability, T/C [22] 103% | viability, T/C (second compound 0.949 µM, first compound 0.00316 µM) 114% | viability, T/C (second compound 0.949 µM, first compound 0.01 µM) 119% | viability, T/C [23] 106% | viability, T/C [24] 119% | viability, T/C [25] 115% | viability, T/C [26] 112% | viability, T/C (second compound 3 µM, first compound 0.00316 µM) 114% | viability, T/C (second compound 3 µM, first compound 0.01 µM) 108% | viability, T/C [27] 107% | viability, T/C [28] 99.5% | viability, T/C [29] 110% | viability, T/C [30] 109%
> 1 µM: IC50 [1] | IC50 [2] | IC50 [3] | IC50 [4] | IC50 [5] | IC50 [6]

O=C(c1cc(Cc2n[nH]c(=O)c3ccccc23)ccc1F)N1CCN(C(=O)C2CC2)CC1 + CCN1C(C(=O)NC23CCC(C(=O)O)(CC2)CC3)C(c2cccc(Cl)c2F)C2(C(=O)Nc3cc(Cl)ccc32)C12CCCCC2
inactive: viability, T/C [7] 99.3% | viability, T/C [8] 94.5% | viability, T/C [9] 118% | viability, T/C [10] 102% | viability, T/C (second compound 0.00949 µM, first compound 3.16 µM) 100% | viability, T/C (second compound 0.00949 µM, first compound 10 µM) 80.2% | viability, T/C [11] 104% | viability, T/C [12] 100% | viability, T/C [13] 97.4% | viability, T/C [14] 108% | viability, T/C (second compound 0.03 µM, first compound 3.16 µM) 116% | viability, T/C (second compound 0.03 µM, first compound 10 µM) 82% | viability, T/C [15] 101% | viability, T/C [16] 106% | viability, T/C [17] 104% | viability, T/C [18] 102% | viability, T/C (second compound 0.0949 µM, first compound 3.16 µM) 112% | viability, T/C (second compound 0.0949 µM, first compound 10 µM) 85.5% | viability, T/C [19] 106% | viability, T/C [20] 116% | viability, T/C [21] 108% | viability, T/C [22] 102% | viability, T/C (second compound 0.3 µM, first compound 3.16 µM) 112% | viability, T/C (second compound 0.3 µM, first compound 10 µM) 97% | viability, T/C [23] 122% | viability, T/C [24] 114% | viability, T/C [25] 110% | viability, T/C [26] 123% | viability, T/C (second compound 0.949 µM, first compound 3.16 µM) 117% | viability, T/C (second compound 0.949 µM, first compound 10 µM) 83.2% | viability, T/C [27] 102% | viability, T/C [28] 108% | viability, T/C [29] 101% | viability, T/C [30] 106% | viability, T/C (second compound 3 µM, first compound 3.16 µM) 98% | viability, T/C (second compound 3 µM, first compound 10 µM) 76.9%
> 10 µM: IC50 [1] | IC50 [2] | IC50 [3] | IC50 [4] | IC50 [5] | IC50 [6]

O=C(c1cc(Cc2n[nH]c(=O)c3ccccc23)ccc1F)N1CCN(C(=O)C2CC2)CC1
inactive: viability, T/C (compound 0.0316 µM) 94.3% and 103% and 108% | viability, T/C (compound 0.1 µM) 84.8% and 92.7% and 94% | viability, T/C (compound 0.316 µM) 105% and 102% (2×) | viability, T/C (compound 1 µM) 115% and 118% and 99.5% | viability, T/C (compound 3.16 µM) 96.9% and 121% and 98.1% | viability, T/C (compound 10 µM) 75.5% and 85.2% and 68.7%
> 10 µM: IC50 (curve of compound)

C=CC(=O)N1CCN(c2nc(=O)n(-c3c(C)ccnc3C(C)C)c3nc(-c4c(O)cccc4F)c(F)cc23)C(C)C1 (configuration not stated)
> 10 µM: IC50 (curve of compound)
inactive: viability, T/C (compound 0.0316 µM) 116% and 95.9% and 101% | viability, T/C (compound 0.1 µM) 99.4% and 96% and 86.8% | viability, T/C (compound 0.316 µM) 106% and 93.2% and 97.1% | viability, T/C (compound 1 µM) 101% (2×) and 100% | viability, T/C (compound 3.16 µM) 113% and 108% and 106% | viability, T/C (compound 10 µM) 110% and 106% and 109%

CCN1C(C(=O)NC23CCC(C(=O)O)(CC2)CC3)C(c2cccc(Cl)c2F)C2(C(=O)Nc3cc(Cl)ccc32)C12CCCCC2 (configuration not stated) + CNC(C)C(=O)NC1CN(S(=O)(=O)c2cccc(S(=O)(=O)N3CCC4CCC(C(=O)NC(c5ccccc5)c5ccccc5)N4C(=O)C(NC(=O)C(C)NC)C3)c2)CCC2CCC(C(=O)NC(c3ccccc3)c3ccccc3)N2C1=O
> 3 µM: IC50 (curve of first compound, second compound 0.00316 µM) | IC50 (curve of first compound, second compound 0.01 µM) | IC50 (curve of first compound, second compound 0.0316 µM) | IC50 (curve of first compound, second compound 0.1 µM) | IC50 (curve of first compound, second compound 0.316 µM) | IC50 (curve of first compound, second compound 1 µM)
inactive: viability, T/C (second compound 0.00316 µM, first compound 0.00949 µM) 115% | viability, T/C (second compound 0.00316 µM, first compound 0.03 µM) 98% | viability, T/C (second compound 0.00316 µM, first compound 0.0949 µM) 111% | viability, T/C (second compound 0.00316 µM, first compound 0.3 µM) 101% | viability, T/C (second compound 0.00316 µM, first compound 0.949 µM) 123% | viability, T/C (second compound 0.00316 µM, first compound 3 µM) 107% | viability, T/C (second compound 0.01 µM, first compound 0.00949 µM) 110% | viability, T/C (second compound 0.01 µM, first compound 0.03 µM) 99.9% | viability, T/C (second compound 0.01 µM, first compound 0.0949 µM) 104% | viability, T/C (second compound 0.01 µM, first compound 0.3 µM) 101% | viability, T/C (second compound 0.01 µM, first compound 0.949 µM) 120% | viability, T/C (second compound 0.01 µM, first compound 3 µM) 105% | viability, T/C (second compound 0.0316 µM, first compound 0.00949 µM) 105% | viability, T/C (second compound 0.0316 µM, first compound 0.03 µM) 101% | viability, T/C (second compound 0.0316 µM, first compound 0.0949 µM) 115% | viability, T/C (second compound 0.0316 µM, first compound 0.3 µM) 104% | viability, T/C (second compound 0.0316 µM, first compound 0.949 µM) 132% | viability, T/C (second compound 0.0316 µM, first compound 3 µM) 109% | viability, T/C (second compound 0.1 µM, first compound 0.00949 µM) 92.5% | viability, T/C (second compound 0.1 µM, first compound 0.03 µM) 111% | viability, T/C (second compound 0.1 µM, first compound 0.0949 µM) 101% | viability, T/C (second compound 0.1 µM, first compound 0.3 µM) 102% | viability, T/C (second compound 0.1 µM, first compound 0.949 µM) 122% | viability, T/C (second compound 0.1 µM, first compound 3 µM) 103% | viability, T/C (second compound 0.316 µM, first compound 0.00949 µM) 104% | viability, T/C (second compound 0.316 µM, first compound 0.03 µM) 102% | viability, T/C (second compound 0.316 µM, first compound 0.0949 µM) 98.3% | viability, T/C (second compound 0.316 µM, first compound 0.3 µM) 105% | viability, T/C (second compound 0.316 µM, first compound 0.949 µM) 131% | viability, T/C (second compound 0.316 µM, first compound 3 µM) 107% | viability, T/C (second compound 1 µM, first compound 0.00949 µM) 112% | viability, T/C (second compound 1 µM, first compound 0.03 µM) 91.8% | viability, T/C (second compound 1 µM, first compound 0.0949 µM) 109% | viability, T/C (second compound 1 µM, first compound 0.3 µM) 110% | viability, T/C (second compound 1 µM, first compound 0.949 µM) 128% | viability, T/C (second compound 1 µM, first compound 3 µM) 97.9%

C#Cc1c(F)ccc2cc(O)cc(-c3ncc4c(N5CC6CCC(C5)N6)nc(OCC56CCCN5CC(F)C6)nc4c3F)c12 (configuration not stated)
inactive: viability, T/C (compound 0.0316 µM) 104% (2×) and 97.2% | viability, T/C (compound 0.1 µM) 82.3% and 98.9% and 99.3% | viability, T/C (compound 0.316 µM) 112% and 115% and 94.7% | viability, T/C (compound 1 µM) 92.9% and 80.2% and 91% | viability, T/C (compound 3.16 µM) 90.2% and 97.4% and 102% | viability, T/C (compound 10 µM) 89.6% (2×) and 88.2%
> 10 µM: IC50 (curve of compound)
